Experimental data published in patent US9428519B2, “Acylated derivative of homoharringtonine, preparation method therefor, and application thereof” (HANGZHOU BENSHENG PHARMACEUTICAL CO., LTD., priority 2011, dated 2016).
≈ marks a conversion by molar mass, not a printed value.

Legend:
[1] = tested on: PC-3 (prostate cancer); assay: MTT growth inhibition of human solid tumor cells, 72 h; format: cell-based; details: MTT
Method in brief: (§1)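 Viability by MTT relative to untreated cells (100%) after 72 h drug exposure; 4000 cells/well preincubated 24 h in 10% FBS DMEM.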

[2] = tested on: A549 (human lung cancer); assay: as above; format: cell-based
Method in brief: as §1

[3] = tested on: RKO (human colon adenocarcinoma cell); assay: as above; format: cell-based; details: MTT
Method in brief: as §1

[4] = tested on: U87 MG (malignant glioma cell); assay: as above; format: cell-based
Method in brief: as §1

[5] = tested on: SK-OV-3 (ovarian cancer cell); assay: as above; format: cell-based
Method in brief: as §1

[6] = tested on: CNE (nasopharyngeal carcinoma cell); assay: as above; format: cell-based; details: MTT
Method in brief: as §1

[7] = tested on: MG63 (osteosarcoma); assay: as above; format: cell-based
Method in brief: as §1

[8] = tested on: Huh7 (human liver cancer cell); assay: as above; format: cell-based
Method in brief: as §1

[9] = tested on: PANC-1 (pancreatic cancer); assay: as above; format: cell-based
Method in brief: as §1

[10] = tested on: CaES-17 (esophageal cancer cell); assay: as above; format: cell-based
Method in brief: as §1

[11] = tested on: Hela (human cervical cancer cell); assay: as above; format: cell-based; details: MTT
Method in brief: as §1

[12] = tested on: Hep-2 (laryngeal carcinoma); assay: as above; format: cell-based
Method in brief: as §1

[13] = tested on: MGC 803 (human gastric cancer cell); assay: as above; format: cell-based
Method in brief: as §1

[14] = tested on: Becap37 (human breast cancer cell); assay: as above; format: cell-based
Method in brief: as §1

[15] = tested on: Kasumi-1 (acute myeloid leukemia M2 type, AML-M2); assay: MTT growth inhibition of leukemia cells, 72 h; format: cell-based, human
Method in brief: (§2)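 Each well received 6000 cells in serum-supplemented (10% FBS) 1640 medium plus compound at varied concentrations. After 72 h incubation at 37 °C, 5% CO2, viable cell concentration was determined by MTT and the 72 h IC50 derived.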

[16] = tested on: H9 (acute lymphoblastic leukemia, ALL); assay: MTT growth inhibition of leukemia cells, 72 h; format: cell-based, human; details: MTT
Method in brief: as §2

[17] = tested on: Jurkat (acute lymphoblastic leukemia, ALL); assay: MTT growth inhibition of leukemia cells, 72 h; format: cell-based, human
Method in brief: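 Growth inhibition of the Jurkat ALL line was measured by MTT after 72 hours of compound exposure at 37° C. under 5% CO2. Wells of a 96-well plate held 6000 cells in 1640 medium plus 10% fetal bovine serum; untreated controls defined 100% viability, and inhibitory concentrations were derived from percent viability.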

[18] = tested on: NB4 (acute promyelocytic leukemia, AML); assay: MTT growth inhibition of leukemia cells, 72 h; format: cell-based, human; details: MTT
Method in brief: as §2

[19] = tested on: K562/adr (drug-resistant, chronic myeloid leukemia, CML); assay: MTT growth inhibition of leukemia cells, 72 h; format: cell-based, human; details: MTT
Method in brief: as §2

[20] = tested on: RPMI8226 (multiple myeloma); assay: MTT growth inhibition of multiple myeloma cells, 72 h; format: cell-based, human
Method in brief: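 Growth inhibition read by MTT after 72 h compound exposure (37 °C, 5% CO2) of 6000 RPMI8226 cells per well in 1640 medium plus 10% fetal bovine serum. Viability expressed against untreated cells (100%), from which the 72 h IC50 was derived.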

COC(=O)C[C@@](CCCC(C)(C)OC(=O)c1ccccc1)(OC(=O)c1ccccc1)C(=O)O[C@@H]1C(OC)=C[C@]23CCCN2CCc2cc4c(cc2[C@H]13)OCO4 [BS-HH-0732]
IC50 PC-3 [1]: 3.97 µg/mL (≈ 5.27 µM)
IC90 PC-3 [1]: 16 µg/mL (≈ 21.2 µM)
IC50 A549 [2]: 5.4 µg/mL (≈ 7.16 µM)
IC90 A549 [2]: >16 µg/mL
IC50 RKO [3]: 1.4 µg/mL (≈ 1.86 µM)
IC90 RKO [3]: 5.24 µg/mL (≈ 6.95 µM)
IC50 U87 MG [4]: 2 µg/mL (≈ 2.65 µM)
IC90 U87 MG [4]: 8.54 µg/mL (≈ 11.3 µM)
IC50 SK-OV-3 ([5]; MTT): 6.71 µg/mL (≈ 8.9 µM)
IC90 SK-OV-3 ([5]; MTT): >16 µg/mL
IC50 CNE [6]: 3.91 µg/mL (≈ 5.19 µM)
IC90 CNE [6]: >16 µg/mL
IC50 MG 63 ([7]; MTT): 1.34 µg/mL (≈ 1.78 µM)
IC90 MG 63 ([7]; MTT): 9.88 µg/mL (≈ 13.1 µM)
IC50 Huh7 [8]: 4.8 µg/mL (≈ 6.37 µM)
IC90 Huh7 [8]: 14.5 µg/mL (≈ 19.2 µM)
IC50 PANC-1 ([9]; MTT): 5.8 µg/mL (≈ 7.69 µM)
IC90 PANC-1 ([9]; MTT): 16 µg/mL (≈ 21.2 µM)
IC50 CaES-17 [10]: 3.93 µg/mL (≈ 5.21 µM)
IC90 CaES-17 [10]: 16 µg/mL (≈ 21.2 µM)
IC50 Hela [11]: 2.61 µg/mL (≈ 3.46 µM)
IC90 Hela [11]: 8.37 µg/mL (≈ 11.1 µM)
IC50 Hep-2 [12]: 3.46 µg/mL (≈ 4.59 µM)
IC90 Hep-2 [12]: >16 µg/mL
IC50 MGC 803 [13]: 2.7 µg/mL (≈ 3.58 µM)
IC90 MGC 803 [13]: 9.92 µg/mL (≈ 13.2 µM)
IC50 Becap37 [14]: 2.9 µg/mL (≈ 3.85 µM)
IC90 Becap37 [14]: 12.7 µg/mL (≈ 16.8 µM)
IC50 Kasumi-1 ([15]; MTT): 1.35 µg/mL (≈ 1.79 µM)
IC90 Kasumi-1 ([15]; MTT): 3.56 µg/mL (≈ 4.72 µM)
IC50 H9 [16]: 1.3 µg/mL (≈ 1.72 µM)
IC90 H9 [16]: 3.9 µg/mL (≈ 5.17 µM)
IC50 Jurkat [17]: 1.4 µg/mL (≈ 1.86 µM)
IC90 Jurkat [17]: 6.4 µg/mL (≈ 8.49 µM)
IC50 NB4 [18]: 1.19 µg/mL (≈ 1.58 µM)
IC90 NB4 [18]: 2.47 µg/mL (≈ 3.28 µM)
IC50 K562/adr [19]: 2.5 µg/mL (≈ 3.32 µM)
IC90 K562/adr [19]: 6.5 µg/mL (≈ 8.62 µM)
IC50 RPMI8226 ([20]; MTT): 1.15 µg/mL (≈ 1.53 µM)
IC90 RPMI8226 ([20]; MTT): 3.84 µg/mL (≈ 5.09 µM)

COC(=O)C[C@](O)(CCCC(C)(C)O)C(=O)O[C@@H]1C(OC)=C[C@]23CCCN2CCc2cc4c(cc2[C@H]13)OCO4 [HHT, O-3-[(2R)-2,6-dihydroxy-2-(2′-methoxy-2′-oxoethyl)-6-methylheptanoyl]cephalotaxine, reference compound]
IC50 ([1]; Homo sapiens): 0.08 µg/mL (≈ 0.147 µM)
IC90 ([1]; Homo sapiens): > 16 µg/mL
IC50 ([2]; Homo sapiens, A549): 0.03 µg/mL (≈ 0.055 µM)
IC90 ([2]; Homo sapiens, A549): > 16 µg/mL
IC50 ([3]; Homo sapiens): 0.003 µg/mL (≈ 0.0055 µM)
IC90 ([3]; Homo sapiens): 0.009 µg/mL (≈ 0.0165 µM)
IC50 ([4]; Homo sapiens, U-87 MG): 0.004 µg/mL (≈ 0.00733 µM)
IC90 ([4]; Homo sapiens, U-87 MG): 0.018 µg/mL (≈ 0.033 µM)
IC50 ([5]; Homo sapiens, SK-OV-3, MTT): 0.09 µg/mL (≈ 0.165 µM)
IC90 ([5]; Homo sapiens, SK-OV-3, MTT): > 16 µg/mL
IC50 ([6]; Homo sapiens): 0.038 µg/mL (≈ 0.0696 µM)
IC90 ([6]; Homo sapiens): > 16 µg/mL
IC50 ([7]; Homo sapiens, MG-63, MTT): 0.01 µg/mL (≈ 0.0183 µM)
IC90 ([7]; Homo sapiens, MG-63, MTT): 1.2 µg/mL (≈ 2.2 µM)
IC50 ([8]; Homo sapiens, Huh-7): 0.004 µg/mL (≈ 0.00733 µM)
IC90 ([8]; Homo sapiens, Huh-7): 0.049 µg/mL (≈ 0.0898 µM)
IC50 ([9]; Homo sapiens, PANC-1, MTT): 0.035 µg/mL (≈ 0.0641 µM)
IC90 ([9]; Homo sapiens, PANC-1, MTT): > 16 µg/mL
IC50 ([10]; Homo sapiens, CaEs17): 0.037 µg/mL (≈ 0.0678 µM)
IC90 ([10]; Homo sapiens, CaEs17): > 16 µg/mL
IC50 ([11]; Homo sapiens, HeLa): 0.019 µg/mL (≈ 0.0348 µM)
IC90 ([11]; Homo sapiens, HeLa): 16 µg/mL (≈ 29.3 µM)
IC50 ([12]; Homo sapiens, HEp-2): 0.014 µg/mL (≈ 0.0257 µM)
IC90 ([12]; Homo sapiens, HEp-2): > 16 µg/mL
IC50 ([13]; Homo sapiens, MGC-803): 0.016 µg/mL (≈ 0.0293 µM)
IC90 ([13]; Homo sapiens, MGC-803): 0.2 µg/mL (≈ 0.367 µM)
IC50 ([14]; Homo sapiens): 0.01 µg/mL (≈ 0.0183 µM)
IC90 ([14]; Homo sapiens): 11.6 µg/mL (≈ 21.2 µM)
IC50 ([15]; Homo sapiens, Kasumi 1, MTT): 0.005 µg/mL (≈ 0.00916 µM)
IC90 ([15]; Homo sapiens, Kasumi 1, MTT): 0.024 µg/mL (≈ 0.044 µM)
IC50 ([16]; Homo sapiens): 0.02 µg/mL (≈ 0.0367 µM)
IC90 ([16]; Homo sapiens): 0.046 µg/mL (≈ 0.0843 µM)
IC50 ([17]; Homo sapiens, Jurkat): 0.007 µg/mL (≈ 0.0128 µM)
IC90 ([17]; Homo sapiens, Jurkat): ≥ 16 µg/mL
IC50 ([18]; Homo sapiens): 0.006 µg/mL (≈ 0.011 µM)
IC90 ([18]; Homo sapiens): 0.012 µg/mL (≈ 0.022 µM)
IC50 ([19]; Homo sapiens, K562/Adr): 0.035 µg/mL (≈ 0.0641 µM)
IC90 ([19]; Homo sapiens, K562/Adr): 0.98 µg/mL (≈ 1.8 µM)
IC50 ([20]; Homo sapiens, RPMI-8226, MTT): 0.006 µg/mL (≈ 0.011 µM)
IC90 ([20]; Homo sapiens, RPMI-8226, MTT): 0.027 µg/mL (≈ 0.0495 µM)
